For series [1], the system named is Plasmodium berghei. Nature of the series: Antimalarial activity against Plasmodium berghei infected in mouse assessed as disease cure from parasite infection at 40 mg/kg, sc administered 72 hrs after infection. In kind it is functional, organism-based. Details: dose 40 mg/kg.
For series [2], the system named is Plasmodium berghei. Nature of the series: Antimalarial activity against Plasmodium berghei infected in mouse assessed as increase in mean survival days of host at 10 mg/kg, sc administered 72 hrs after infection relative to control. In kind it is functional. Conditions: route subcutaneous.
Series [3] has as its system Mus musculus. Nature of the series: Toxicity in Plasmodium berghei infected mouse assessed as mortality at 640 mg/kg, sc administered 72 hrs after infection measured after 2 to 5 days. In kind it is organism-based. Details: dose 640 mg/kg, route subcutaneous. Particulars: in vivo.
Series [4] concerns Plasmodium berghei. Nature of the series: Antimalarial activity against Plasmodium berghei infected in mouse assessed as disease cure from parasite infection at 640 mg/kg, sc administered 72 hrs after infection. Also noted: dose 640 mg/kg. In kind it is functional, organism-based.
Series [5] relates to Plasmodium berghei. Nature of the series: Antimalarial activity against trophozoite-induced Plasmodium berghei infected in mouse assessed as daily dose required to suppression of 90% parasite infection administered with diet for 6 days. Type of series: functional.
Series [6] relates to Plasmodium gallinaceum. Nature of the series: Antimalarial activity against sporozoite-induced Plasmodium gallinaceum infected in white leghorn chicken assessed as disease cure from parasite infection at 80 mg/kg, sc administered 72 hrs after infection. In kind it is functional, organism-based. Details: dose 80 mg/kg.
The subject of series [7] is Plasmodium gallinaceum. Nature of the series: Antimalarial activity against sporozoite-induced Plasmodium gallinaceum infected in white leghorn chicken assessed as disease cure from parasite infection at 20 mg/kg, sc administered 72 hrs after infection. Type of series: functional, organism-based. Details: dose 20 mg/kg.
The subject of series [8] is Mus musculus. Nature of the series: Toxicity in Plasmodium berghei infected mouse assessed as mortality at 320 mg/kg, sc administered 72 hrs after infection measured after 2 to 5 days. In kind it is organism-based. Also noted: dose 320 mg/kg, route subcutaneous. Particulars: in vivo.
For series [9], the system named is Plasmodium gallinaceum. Nature of the series: Antimalarial activity against sporozoite-induced Plasmodium gallinaceum infected in white leghorn chicken assessed as disease cure from parasite infection at 320 mg/kg, sc administered 72 hrs after infection. In kind it is functional, organism-based. Details: dose 320 mg/kg.
For series [10], the system named is Plasmodium berghei. Nature of the series: Antimalarial activity against Plasmodium berghei infected in mouse assessed as disease cure from parasite infection at 320 mg/kg, sc administered 72 hrs after infection. Type of series: functional, organism-based. Details: dose 320 mg/kg.
Series [11] concerns Plasmodium gallinaceum. Nature of the series: Antimalarial activity against sporozoite-induced Plasmodium gallinaceum infected in white leghorn chicken assessed as disease cure from parasite infection at 40 mg/kg, sc administered 72 hrs after infection. Details: dose 40 mg/kg. Type of series: functional, organism-based.
The subject of series [12] is Plasmodium berghei. Nature of the series: Antimalarial activity against Plasmodium berghei infected in mouse assessed as increase in mean survival days of host at 1.25 mg/kg, sc administered 72 hrs after infection relative to control. Type of series: functional. Conditions: route subcutaneous.
The subject of series [13] is Plasmodium gallinaceum. Nature of the series: Antimalarial activity against sporozoite-induced Plasmodium gallinaceum infected in white leghorn chicken assessed as disease cure from parasite infection at 160 mg/kg, sc administered 72 hrs after infection. Also noted: dose 160 mg/kg. Type of series: functional, organism-based.
For series [14], the system named is Plasmodium berghei. Nature of the series: Antimalarial activity against Plasmodium berghei infected in mouse assessed as increase in mean survival days of host at 5 mg/kg, sc administered 72 hrs after infection relative to control. Type of series: functional. Conditions: route subcutaneous.
The test system of series [15] is Gallus gallus. Nature of the series: Toxicity in sporozoite-induced Plasmodium gallinaceum infected white leghorn chicken assessed as mortality at 320 mg/kg, sc administered 72 hrs after infection measured up to 6 days. In kind it is organism-based. Details: dose 320 mg/kg, route subcutaneous. Particulars: in vivo.
The test system of series [16] is Plasmodium berghei. Nature of the series: Antimalarial activity against Plasmodium berghei infected in mouse assessed as disease cure from parasite infection at 160 mg/kg, sc administered 72 hrs after infection. In kind it is functional, organism-based. Details: dose 160 mg/kg.
The subject of series [17] is Plasmodium berghei. Nature of the series: Antimalarial activity against Plasmodium berghei infected in mouse assessed as increase in mean survival days of host at 2.5 mg/kg, sc administered 72 hrs after infection relative to control. Type of series: functional. Conditions: route subcutaneous.
Series [18] has as its system Plasmodium berghei. Nature of the series: Ratio of quinine hydrochloride SD90 to compound SD90 for trophozoite-induced Plasmodium berghei infected in mouse assessed as daily dose required to suppression of 90% parasite infection administered with diet for 6 days. Type of series: functional.
Series [19] relates to Plasmodium berghei. Nature of the series: Antimalarial activity against Plasmodium berghei infected in mouse assessed as increase in mean survival days of host at 20 mg/kg, sc administered 72 hrs after infection relative to control. In kind it is functional. Conditions: route subcutaneous.
For series [20], the system named is Plasmodium berghei. Nature of the series: Antimalarial activity against Plasmodium berghei infected in mouse assessed as disease cure from parasite infection at 80 mg/kg, sc administered 72 hrs after infection. Type of series: functional, organism-based. Also noted: dose 80 mg/kg.
For series [21], the system named is Plasmodium gallinaceum. Nature of the series: Antimalarial activity against sporozoite-induced Plasmodium gallinaceum infected in white leghorn chicken assessed as disease cure from parasite infection at 10 mg/kg, sc administered 72 hrs after infection. Type of series: functional, organism-based. Also noted: dose 10 mg/kg.
The test system of series [22] is Plasmodium gallinaceum. Nature of the series: Antimalarial activity against trophozoite-induced Plasmodium gallinaceum infected in white leghorn chicken assessed as increase in mean survival days of host at 40 mg/kg, sc administered 72 hrs after infection relative to control. In kind it is functional. Particulars: route subcutaneous.
For series [23], the system named is Gallus gallus. Nature of the series: Toxicity in trophozoite-induced Plasmodium gallinaceum infected white leghorn chicken assessed as mortality at 320 mg/kg, sc administered 72 hrs after infection measured after 48 hrs. In kind it is organism-based. Details: dose 320 mg/kg, route subcutaneous. Conditions: in vivo.
Series [24] deals with Plasmodium gallinaceum. Nature of the series: Antimalarial activity against trophozoite-induced Plasmodium gallinaceum infected in white leghorn chicken assessed as increase in mean survival days of host at 160 mg/kg, sc administered 72 hrs after infection relative to control. Type of series: functional. Particulars: route subcutaneous.
Series [25] has as its system Plasmodium gallinaceum. Nature of the series: Antimalarial activity against trophozoite-induced Plasmodium gallinaceum infected in white leghorn chicken assessed as increase in mean survival days of host at 20 mg/kg, sc administered 72 hrs after infection relative to control. In kind it is functional. Particulars: route subcutaneous.
For series [26], the system named is Plasmodium gallinaceum. Nature of the series: Antimalarial activity against trophozoite-induced Plasmodium gallinaceum infected in white leghorn chicken assessed as increase in mean survival days of host at 10 mg/kg, sc administered 72 hrs after infection relative to control. Type of series: functional. Conditions: route subcutaneous.
Series [27] relates to Plasmodium gallinaceum. Nature of the series: Antimalarial activity against trophozoite-induced Plasmodium gallinaceum infected in white leghorn chicken assessed as increase in mean survival days of host at 2.5 mg/kg, sc administered 72 hrs after infection relative to control. Particulars: route subcutaneous. In kind it is functional.
Series [28] has as its system Plasmodium gallinaceum. Nature of the series: Antimalarial activity against trophozoite-induced Plasmodium gallinaceum infected in white leghorn chicken assessed as increase in mean survival days of host at 80 mg/kg, sc administered 72 hrs after infection relative to control. Type of series: functional. Particulars: route subcutaneous.
In series [29] the test system is Plasmodium gallinaceum. Nature of the series: Antimalarial activity against trophozoite-induced Plasmodium gallinaceum infected in white leghorn chicken assessed as increase in mean survival days of host at 1.25 mg/kg, sc administered 72 hrs after infection relative to control. In kind it is functional. Conditions: route subcutaneous.
The test system of series [30] is Plasmodium gallinaceum. Nature of the series: Antimalarial activity against trophozoite-induced Plasmodium gallinaceum infected in white leghorn chicken assessed as increase in mean survival days of host at 5 mg/kg, sc administered 72 hrs after infection relative to control. Particulars: route subcutaneous. Type of series: functional.

From ChEMBL document CHEMBL3272271, “Folate antagonists. 13. 2,4-Diamino-6-](alpha,alpha,alpha-trifluoro-m-tolyl)thio]quinazoline and related 2,4-diamino-6-[(phenyl- and naphthyl)thio]quinazolines, a unique class of antimetabolites with extraordinary antimalarial and antibacterial effects” (J Med Chem, 1978) come the findings set out here.

Calls of active or inactive are those of the source. No cut-off for these calls is given here.

Regarding `CCc1nc(N)nc(N)c1-c1ccc(Cl)cc1` [PYRIMETHAMINE], the outcome in the series with Plasmodium berghei [1], in the series on Plasmodium berghei [4], with Plasmodium gallinaceum [6], in the series on Plasmodium gallinaceum [7], in the series on Plasmodium gallinaceum [9] and with Plasmodium berghei [10] was Active. Besides, the outcome in the series with Plasmodium gallinaceum [11], in the series on Plasmodium gallinaceum [13], with Plasmodium berghei [16], with Plasmodium berghei [20] and with Plasmodium gallinaceum [21] was Active. Moreover, the MST amounted to 6.1 days with Plasmodium berghei [2]; 3.1 days with Plasmodium berghei [12]; 5.3 days in the series with Plasmodium berghei [14]; 4.7 days in the series with Plasmodium berghei [17]; 7.7 days in the series on Plasmodium berghei [19]. The Activity entry with Mus musculus [3], in the series on Mus musculus [8] and with Gallus gallus [15] was “Toxic” in each case. Besides, the SD90 in the series on Plasmodium berghei [5] turned out to be 0.28 mg/kg/day. The Ratio in the series with Plasmodium berghei [18] is 270.

In the case of `CN(Cc1ccc(Cl)c(Cl)c1)c1ccc2nc(N)nc(N)c2c1`, the MST was found to be 7.5 days in the series with Plasmodium berghei [2]; 15.6 days with Plasmodium gallinaceum [22]; 21 days in the series on Plasmodium gallinaceum [24]; 10.6 days in the series with Plasmodium gallinaceum [25]; 7.4 days with Plasmodium gallinaceum [26]; 0.3 days with Plasmodium berghei [12]. Besides, the MST worked out at 2.9 days with Plasmodium berghei [14]; 6 days in the series on Plasmodium gallinaceum [27]; 20.6 days in the series on Plasmodium gallinaceum [28]; 1.5 days with Plasmodium berghei [17]; 14.9 days in the series on Plasmodium berghei [19]; 1.4 days in the series on Plasmodium gallinaceum [29]. Further, the MST in the series with Plasmodium gallinaceum [30] worked out at 6.8 days. Further, the Activity result with Gallus gallus [23] is “Toxic”.
